Assay results: patent US10653694B2, “Cytotoxic compounds which are inhibitors of the polymerisation of tubulin” (CENTRE NATIONAL DE LA RECHERCHE SCIENTIFIQUE (CNRS), priority 2014, dated 2020)
pIC50: −log10 of the molar value. Where two headings read alike, the source gives them in different places.

Key:
many human cancer lines = conditions: read-out: IC50 (cytotoxic); cited from earlier work
tubulin [1] = test: Inhibition of polymerisation of tubulin (IPT); format: biochemical, sheep
Description: (§1) Brown oil, 89%. Rf 0.3 (Cyclohexane/EtOAc, 7/3). IR (neat, cm^−1): 1609, 1593, 1564, 1428, 1205, 1157. ^1H NMR (300 MHz, CDCl3): 8.08 (d, 1H, J=8.2 Hz), 7.90 (d, 1H, J=8.4 Hz), 7.77-7.72 (ddd, 1H, J=8.2 Hz, J=6.9 Hz, J=1.3 Hz), 7.44 (ddd, 1H, J=8.3 Hz, J=7.0 Hz, J=1.0 Hz), 6.49 (d, 2H, J=2.2 Hz), 6.27 (t, 1H, J=2.2 Hz), 4.90 (q, 1H, J=6.9 Hz), 3.73 (s, 6H), 2.91 (s, 3H), 1.78 (d, 3H, J=6.9 Hz). ^13C NMR (75 MHz, CDCl3): 171.8, 163.8, 161.0 (2C), 150.7, 146.9, 133.2, 128.5, 126.6, 124.7, 121.6, 106.2 (2C), 98.0, 55.4 (2C), 43.4, 26.9, 21.1. m/z MS (APCI^+): 309 (M+H)^+. Cytotoxicity Protocol. U87, H1299 and MDA-MB231 cells are grown in Dulbecco minimal essential medium (DMEM) containing 4.5 g/L glucose and supplemented with 10% foetal calf serum and 1% glutamine. K562 and HCT116 cells are grown in RPMI 1640 medium containing 10% foetal calf serum and 1% glutamine. All the cell lines are maintained in culture at 37° C. in a humid atmosphere containing 5% CO2. The cells are inoculated in 96-well culture plates in an amount of 5000 cells per well in 50 μL of culture medium. After 24 hours of culture, the molecule to be tested, dissolved in DMSO and diluted 1/1000 in suitable culture medium, is added in each well in an amount of 50 μL per well. After 72 hours of incubation, 20 μL of resazurin is added in each well. After 1 hour of incubation, emitted fluorescence is measured at 590 nm after excitation at 560 nm using the Victor fluorescence reader (Perkin-Elmer, USA). Each concentration is tested three times and each experiment is repeated three times. Protocol for Inhibition of Polymerisation of Tubulin. When tubulin is placed at a temperature of 0° C., it is in the form of free dimers. […] The IPT of the various synthesized analogues was determined on a soluble tubulin according to the method of Shelanski^7 from sheep brains where it constitutes 20 to 25% of soluble proteins. The “antitubulin” activity is evaluated according to the method of Gaskin^8 by measuring turbidity, which is proportional to the microtubule concentration in the suspension. Turbidity is measured by absorption of the suspension at 350 nm using a spectrophotometer fitted with a cell thermostatically-controlled at 37° C. The various samples were dissolved in DMSO and incubated 10 minutes at 37° C. then 5 minutes at 0° C. The tubulin assembly and disassembly curves are obtained by absorption kinetics at 350 nm as a function of time. The IC50 determined graphically is defined as the concentration of inhibitor necessary to decrease by 50% the maximum rate of assembly of the control tubulin. In Vitro Biological Study of Compounds of the Present Invention
The most cytotoxic compounds were selected for tests of inhibition of polymerisation of tubulin. These tests were carried out under the direction of Dr J. Dubois at Gif-sur-Yvette, France. Tubulin is purified from ewe brains according to the method of Shelanski^9 by two assembly-disassembly cycles. The stock solution (15-20 mg/mL), stored at −196° C., is thawed and diluted in assembly buffer (0.1 M MES, 0.5 mM MgCl2, 1 mM EGTA, and 1 mM GTP, pH 6.6) to have a final concentration of 10 μM. Tubulin assembly is monitored by fluorescence on 96-well plates according to the method of Barron et al.^10 Inhibitor (DMSO, 1 μL) is added to the tubulin solution (10 μM, 100 μL per well) and the solution is incubated 45 minutes at room temperature. GTP (1 mM final) is then added, the solution is mixed rapidly and fluorescence (λex=350 nm, λem=440 nm) is measured on a Wallac Victor fluorometer (Perkin Elmer). The inhibition of 50% of the maximum rate of assembly (IC50) is determined in duplicate or triplicate on 10 concentrations bracketing the IC50.

[2] = tested on: endothelial cell proliferation; conditions: inhibition of endothelial cell proliferation; cited from earlier work
tubulin [3] = conditions: binding to the colchicine site; read-out: IC50 (inhibits tubulin assembly into microtubules); cited from earlier work
[4] = tested on: K562 (chronic myeloid leukaemia); test: Cytotoxicity on K562 line (resazurin, 72 h); format: cell-based; conditions: Homo sapiens
Description: as §1
(§2) Compounds I-15, I-16 and I-19 were also evaluated on a K562 chronic myeloid leukaemia line and a K562R imatinib-resistant chronic myeloid leukaemia line.

[5] = tested on: HCT116 human cancer cell line (colorectal cancer); test: Cytotoxicity on HCT116 human cancer cell line (resazurin, 72 h); format: cell-based; conditions: Homo sapiens, HCT-116
Description: as §1
The cytotoxic activity of the compounds was studied in vitro principally on the HCT116 human cancer cell line (colorectal cancer). The line selected for this study was incubated at 37° C. in the presence of one of the compounds added in the culture medium at various concentrations. The inhibitory concentration inducing the death of 50% of the cells (IC50) was determined after 72 hours of incubation (Table 1) for each compound. The set of experiments carried out made it possible to determine the degree of toxicity of the compounds tested by taking isoCA-4 as the reference. […] Lastly, when these first results are examined, it appears that the reduction of the double bond located between the two aromatic nuclei yields “reduced” type II derivatives about 10 times less cytotoxic than their precursors I as we had already noted during the reduction of isoCA-4 derivatives to isoerianin-type derivatives.

[6] = tested on: H1299 (non-small-cell lung cancer); test: Cytotoxicity on H1299 line (resazurin, 72 h); format: cell-based; conditions: Homo sapiens, NCI-H1299
Description: as §1, §2

[7] = Table 3, inhibition of 50% of the maximum rate of assembly, tubulin 10 μM, read-out: IPT (IC50)
[8] = K562, Table 2, 50% cell death after 72 hours of incubation, read-out: K562 IC50
[9] = range given jointly for K562 and H1299 lines, read-out: IC50 (cytotoxicity, K562)
[10] = 72 hours of incubation, read-out: IC50 (cytotoxicity, HCT116)
[11] = Table 1, concentration inducing 50% cell death after 72 hours of incubation, read-out: HCT116 IC50
[12] = Table 2, 50% cell death after 72 hours of incubation, read-out: H1299 IC50
[13] = range given jointly for K562 and H1299 lines, read-out: IC50 (cytotoxicity, H1299)

In the case of COc1ccc(/C=C\c2cc(OC)c(OC)c(OC)c2)cc1O [CA-4, combretastatin A-4], the pIC50 (many human cancer lines) is given as 8.70 to 9.00, the pIC50 (tubulin [1]; [7]) is given as […] and the “anti-vascular activity in vitro (in words)” value [2] is given as “nanomolar”. For the same molecule, the pIC50 (tubulin [3]) was […].
C=C(c1ccc(OC)cc1)c1nc(C)nc2ccccc12 [Compound I-1, 4-[1-(4-Methoxy-phenyl)-vinyl]-2-methyl-quinazoline] showed a pIC50 (tubulin [1]; [7]) of 5.74, a pIC50 [4, 8] of 7.47 and a pIC50 [4, 9] of 7.42 to 7.66. It also gave a pIC50 [5, 10] of 7.40, a pIC50 [5, 11] of 7.42 and a pIC50 [6, 12] of 7.66. The pIC50 [6, 13] was 7.42 to 7.66.
C=C(c1ccc(OC)c(OC)c1)c1nc(C)nc2ccccc12 [Compound I-2, 4-[1-(3,4-Dimethoxy-phenyl)-vinyl]-2-methyl-quinazoline] gave a pIC50 [5, 11] of 6.34.
C=C(c1ccc(OC(F)(F)F)cc1)c1nc(C)nc2ccccc12 [Compound I-3, 2-Methyl-4-(1-(4-(trifluoromethoxy)phenyl)vinyl)quinazoline] gave a pIC50 [5, 11] of 5.64.
Molecule C=C(c1ccc(SC)cc1)c1nc(C)nc2ccccc12 [Compound I-4, 2-Methyl-4-(1-(4-(methylthio)phenyl)vinyl)quinazoline] has a pIC50 (tubulin [1]; [7]) of 5.54 and a pIC50 [5, 11] of 7.28.
In the case of C=C(c1ccc(OC)c(F)c1)c1nc(C)nc2ccccc12 [Compound I-5, 4-[1-(3-Fluoro-4-methoxy-phenyl)-vinyl]-2-methyl-quinazoline], the pIC50 (tubulin [1]; [7]) was 6.00, the pIC50 [5, 10] was > 7.70 and the pIC50 [5, 11] was 7.74.
In the case of C=C(c1ccc(OC)c(O)c1)c1nc(C)nc2ccccc12 [Compound I-6, 2-Methoxy-5-(1-(2-methylquinazolin-4-yl)vinyl)phenol], the pIC50 (tubulin [1]; read-out: IC50 (inhibition of polymerisation of tubulin)) was 6.22, the pIC50 [5, 10] was > 7.70 and the pIC50 [5, 11] was 8.00.
With C=C(c1ccc(OC)c(N)c1)c1nc(C)nc2ccccc12 [Compound I-7, 2-Methoxy-5-(1-(2-methylquinazolin-4-yl)vinyl)aniline] the pIC50 (tubulin [1]; [7]) was 5.64, the pIC50 [5, 10] was > 7.70 and the pIC50 [5, 11] was 8.00.
With C=C(c1ccc2ccccc2c1)c1nc(C)nc2ccccc12 [Compound I-8, 2-Methyl-4-(1-(naphthalen-2-yl)vinyl)quinazoline] the pIC50 (tubulin [1]; [7]) was 5.66, the melting point was 113.6 °C and the pIC50 [5, 11] was 6.89.
Work on C=C(c1ccc(OC)cc1)c1nc(Cl)nc2ccccc12 [Compound I-10, 2-Chloro-4-[1-(4-methoxy-phenyl)-vinyl]-quinazoline] yielded a pIC50 (tubulin [1]; [7]) of 5.72, a pIC50 [4, 8] of 7.42 and a pIC50 [4, 9] of 7.42 to 7.66. The pIC50 [5, 10] was 7.40, the pIC50 [5, 11] was 7.47 and the pIC50 [6, 12] was 7.60. The pIC50 [6, 13] was 7.42 to 7.66.
